Values quoted from earlier work, collected in PubChem BioAssay AID493017 (Abbott Labs, 2003).

biological target: Cyclin-dependent kinase 2 (Homo sapiens) (UniProt P24941); test: PubChem AID 493017; details: WOMBAT literature affinities, multiple human targets; CDK2; gene CDK2; NCBI gene 1017

Compound | IC50
Cc1cc(Cc2ccc(NC(N)=S)c(C)c2)ccc1NC(N)=S | 2650 nM
CCOC(=O)Nc1nc2ccc(C=Cc3ccc(C)cc3)cc2[nH]1 | 7350 nM
COC(=O)c1cc(=O)n2c(nc3cc(C(F)(F)F)ccc32)s1 | 7770 nM
O=C(Cc1nnc(NC(=O)c2ccc([N+](=O)[O-])c(Cl)c2)s1)NNC(=O)c1ccc([N+](=O)[O-])c(Cl)c1 | 1210 nM
COC(=O)NC1=Nc2cccc3cccc(c23)N1 | 4390 nM
O=[N+]([O-])c1ccc(S(=O)(=O)c2ccc(Oc3ccc(S(=O)(=O)c4ccc([N+](=O)[O-])cc4)cc3)cc2)cc1 | 1520 nM
COC(=O)c1c(NC(=O)Nc2ccc(Cl)cc2)sc2c1CCN(c1ncc(C(F)(F)F)cc1Cl)C2 | 8890 nM
Cc1ccc(Nc2nc(-c3cc(C(C)(C)C)c(O)c(C(C)(C)C)c3)c(C)s2)cc1 | 1220 nM
Cc1cccc(NC(=O)Nc2ccc(Cc3ccc(NC(=O)Nc4cccc(C)c4)cc3)cc2)c1 | 4820 nM
c1cnc2nc(-c3ccncc3)[nH]c2c1 | 3000 nM
N#CC(=Cc1cc(O)c(O)c(O)c1)C(N)=C(C#N)C#N | 1480 nM
Oc1cc(O)cc(C=Cc2ccc(O)c(O)c2)c1 | 2580 nM
Nc1nc(NS(=O)(=O)c2ccc(C(F)(F)F)cc2)cc(-c2ccc(F)cc2)n1 | 1860 nM
CCC(C)c1cc(N)nc2nc3cc(C)c(C)cc3n12 (centres undefined) | 6620 nM
CC(=O)c1c(O)c(C)c(O)c(Cc2c(O)c3c(c(C(=O)C=Cc4ccccc4)c2O)OC(C)(C)C=C3)c1O | 4550 nM
CCCCCOC(=O)c1ccc(N2C(=O)c3ccc(Oc4ccc(NC(C)=O)cc4)cc3C2=O)cc1 | 3300 nM

Continued, values first:

IC50 | Compound
1370 nM | O=C(Nc1ccc(NC(=O)c2ccccc2[N+](=O)[O-])cc1)c1ccc(NC(=O)c2ccccc2[N+](=O)[O-])cc1
2960 nM | Cc1ccc(C(=O)Nc2ccc3c(c2)Cc2cc(NC(=O)c4ccc(C)cc4)ccc2-3)cc1
1130 nM | S=c1[nH]c(=S)c2c3c(sc2[nH]1)CN(Cc1ccccc1)CC3
1310 nM | O=C(CSc1nnc(SCC(=O)Nc2nc(-c3ccccc3)cs2)s1)Nc1nc(-c2ccccc2)cs1
1120 nM | CN1CCc2nc(SCc3ccc(C(C)(C)C)cc3)c(C#N)c(-c3cccs3)c2C1
1410 nM | O=C1c2ccc([N+](=O)[O-])c3c([N+](=O)[O-])ccc(c23)C(=O)N1c1ccc(S(=O)(=O)Nc2cc(Cl)ccc2O)cc1
3500 nM | OCCNc1cc(-c2[nH]c3nccnc3c2-c2ccc(F)cc2)ccn1
1150 nM | O=C(Nc1cc([N+](=O)[O-])ccc1O)c1ccc(Oc2ccc(C(=O)Nc3cc([N+](=O)[O-])ccc3O)cc2)cc1
2940 nM | O=C(Nc1cccc2cccc(NC(=O)c3ccc([N+](=O)[O-])cc3)c12)c1ccc([N+](=O)[O-])cc1
4100 nM | Cc1cc(Nc2ccc3[nH]ncc3c2)nc(NCC2CC2)n1
3370 nM | O=C(Nc1ccccc1)Nc1sccc1OCc1ccc(Cl)cc1Cl
2160 nM | c1ccc2c(c1)nc(SC1=NCCCN1)c1c3ccccc3[nH]c21
2900 nM | Cc1nc(N=C(N)NC(=O)Nc2ccc(Cl)cc2)sc1Br
4510 nM | Nc1ccc(C(=O)Nc2ccc(-c3nc4ccc(NC(=O)c5ccc(N)cc5)cc4[nH]3)cc2)cc1
3660 nM | O=C(Nc1ccc(Cl)cc1)c1cc(Br)ccc1NS(=O)(=O)c1ccc(Br)c2nsnc12
4190 nM | O=C(Nc1ccc([N+](=O)[O-])cc1)C(Cc1ccccc1)N1C(=O)c2cccc3cccc(c23)C1=O (centres undefined)
1100 nM | N#Cc1cnc(NC2CCCCC2)nc1N
2830 nM | C#Cc1cccc(N2C(=O)c3ccc(Oc4cccc(N5C(=O)c6ccc([N+](=O)[O-])cc6C5=O)c4)cc3C2=O)c1
